Measurements from US6429212B1, “Medicinal composition” (Ishihara Sangyo Kaisha Ltd., priority 1996, dated 2002).

Legend:
[1] = test system: TNF-α production or secretion by human leukemia cells HL-60 (TPA stimulation); experiment: Influence on TNF-α production or secretion by HL-60 cells stimulated by TPA (ELISA of supernatant); assay type: cell-based; details: for amount of TNF-α, TPA alone = 100%: HL-60, TPA stimulation (Table 11); for amount of TNF-α in the supernatant, TPA alone = 100%: HL-60, TPA 10 nM, 16 hours (Table 9)
Experimental: (§1) Human leukemia cells HL-60 produce tumor necrosis factor (TNF-α) by stimulation of Okadaic acid (9,10-Deepithio-9,10-didehydroacanthifolicin) or 12O-tetradecanoyl phorbol-13-acetate (TPA). Influences of the compounds of the present invention to production or secretion of TNF-α by them were observed.
The same operation was carried out as in Test Example 1, except that TPA (produced by Sigma) having a final concentration of 10 nM was used, instead of Okadaic acid having a final concentration of 50 nM.
The values in the Table are values obtained by supposing the amount of TNF-α in the supernatant of the culture medium when treated only with TPA having a final concentration of 10 nM, 100%.
Human leukemia cells (HL-60) produce tumor necrosis factor (TNF-α) by stimulation of 12O-tetradecanoyl phorbol-13-acetate (TPA). The influences of the compounds of the present invention to production of TNF-αby it were observed.
(§2) Human leukemia cells (HL-60) were cultured by using a RPMI 1640 culture medium (including 5% fetal bovine serum), in a carbonic acid gas incubator (5% CO2, humidified, 37° C.). Then, the cells were pre-cultured in a RPMI 1640 culture medium (including 10% fetal bovine serum). TPA was added thereto, so that the final concentration was 10 nM based on the HL-60 cells (5×10^5 cells/ml) in an exponentially growing stage. Then, the compound of the present invention was added thereto so that the predetermined concentration could be obtained, to prepare a cell suspension, which was then cultured in a carbonic gas incubator (5% CO2, humidified, 37° C.). In this culture, a multiplate having 24 holes (produced by Corning) was used, and the cell suspension was injected in an amount of 0.5 ml per hole, to culture the cells.
16 hours after the culture started, the cells were removed by centrifugation(1000-2000 rpm×10 min), and the amount of TNF-α in the supernatant was measured in accordance with the method of Amersham, by using human TNF-α ELISA system (produced by Amersham).
The values are obtained by supposing the amount of TNF-α when treated only with TPA having a final concentration of 10 nM, 100%.
The influences of the compounds of the present invention to production or secretion of TNF-α by TPA stimulation were observed, in the same manner as in Test Example 2.

[2] = test system: TNF-α production or secretion by human leukemia cells HL-60 (Okadaic acid stimulation); experiment: Influence on TNF-α production or secretion by HL-60 cells stimulated by Okadaic acid (ELISA of supernatant); assay type: cell-based; details: for amount of TNF-α in the supernatant, Okadaic acid alone = 100%: HL-60, Okadaic acid 50 nM, 16 hours (Table 8); for amount of TNF-α, Okadaic acid alone = 100%: HL-60, Okadaic acid stimulation (Table 10)
Experimental: as §1
as §2, with “bovine serum). Okadaic acid was added” for “bovine serum). TPA was added”, “concentration was 50 nM based” for “concentration was 10 nM based”, “a carbonic acid gas incubator” for “a carbonic gas incubator”
16 hours after the culture started, the cells were removed by centrifugation (1000-2000 rpm×10 min), and the amount of TNF-α in the supernatant was measured in accordance with the method of Amersham, by using human TNF-α ELISA system (produced by Amersham).
The values in the Table are values obtained by supposing the amount of TNF-αin the supernatant of the culture medium when treated only with Okadaic acid having a final concentration of 50 nM, 100%.
Influences of the compounds of the present invention to production or secretion of TNF-α by Okadaic acid stimulation were observed, in the same manner as in Test Example 1.

[3] = test system: angiogenesis under skin of mice; experiment: Angiogenesis under skin of mice (b-FGF matrigel, amount of hemoglobin); assay type: in vivo, BALB/c male mice; set-up: key to Amount of hemoglobin, value in parentheses (Control = 100): % of control (control = 100), hemoglobin per matrigel; details: for Amount of hemoglobin, value in parentheses (Control = 100): experiment (b) (Table 15)
Experimental: By subcutaneously injecting a mixture having recombinant human fibroblast growth factor-basic added to matrigel, to the back of a mice, angiogenesis occurs under skin of the mice. By measuring the amount of hemoglobin in matrigel, angiogenesis can be quantified. Influences of the compounds of the present invention to angiogenesis were observed.
Matrigel (trademark; basement membrane matrix, phenol is not included, purchased from Becton Dickinson Labware) was added to Dulbecco's modified Eagle's medium (purchased from Sigma), so that the concentration was 9 mg/ml. Recombinant Human Fibroblast Growth Factor-basic (b-FGF, produced by Intergen) was added thereto, so that the concentration was 2 μg/700 μl. The mixture was subcutaneously injected to 6-week BALB/c male mice (Charles River Japan Inc.) in an amount of 700 μl per mouse. Everyday after matrigel injection, a suspension having the compound of the present invention added to 0.8% Tween 80 (purchased from Nacalai Tesque), so that the predetermined concentration could be obtained, was intraperitoneally injected to the mice. 8 days after matrigel injection, matrigel was taken out from the mice, which was then placed in 200 μl of 1% NH4OH at room temperature for 4 hours, to extract hemoglobin. The extraction and matrigel together were subjected to centrifugal separation (10000 rpm, 5 min). 100 μl of the obtained supernatant and 500 μl of Drabkin's reagent (purchased from Sigma) were mixed and left at room temperature. After left more than 15 minutes, absorbance of the supernatant at a wavelength of 540 nm was measured by using a spectrophotometer SPECTRA max 250 (produced by Molecular Devices). The amount of hemoglobin in the supernatant was obtained from the standard curve prepared by using hemoglobin standard (purchased from Sigma), and the amount of hemoglobin per matrigel obtained from a mouse was calculated.
The amount of the hemoglobin in each treatment fraction was corrected by the amount of hemoglobin wherein matrigel having no b-FGF added was injected to the mice, and 0.8% Tween 80 as a solvent alone was injected everyday.
Influences of the compounds of the present invention to angiogenesis under skin of mice were observed, in the same manner as in Test Example 8.

Row | SMILES | melting point [°C] | amount of TNF-α in the supernatant, Okadaic acid alone = 100% ([2]; compound 1 nM) [%] | amount of TNF-α in the supernatant, Okadaic acid alone = 100% ([2]; compound 10 nM) [%] | amount of TNF-α in the supernatant, Okadaic acid alone = 100% ([2]; compound 100 nM) [%] | amount of TNF-α in the supernatant, Okadaic acid alone = 100% ([2]; compound 0.3 μM) [%] | amount of TNF-α in the supernatant, TPA alone = 100% ([1]; compound 10 nM) [%] | amount of TNF-α in the supernatant, TPA alone = 100% ([1]; compound 100 nM) [%] | amount of TNF-α in the supernatant, TPA alone = 100% ([1]; compound 0.3 μM) [%] | amount of TNF-α, TPA alone = 100% ([1]; compound 10 μM) [%] | other results
1 | CC(C)c1cccc(C(C)C)c1N1Cc2ccccc2C1 [Compound 144, N-(2,6-diisopropylphenyl)isoindoline] | 130.9 to 132 |  |  |  |  |  |  |  |  | amount of TNF-α, TPA alone = 100% ([1]; compound 100 μM): 319%
2 | C[C@@H](c1ccccc1)N1C(=O)c2cccc([N+](=O)[O-])c2C1=O [Compound 83, (S)-2-(1-phenylethyl)-4-nitro-1H-isoindole-1,3-dione] | 115 to 117 | 100 | 99 | 85 | 61 | 122 | 187 | 239 |  | 
3 | C[C@H](c1ccccc1)N1C(=O)c2cccc([N+](=O)[O-])c2C1=O [Compound 84, (R)-2-(1-phenylethyl)-4-nitro-1H-isoindole-1,3-dione] | 115 to 117 | 99 | 104 | 88 | 52 | 100 | 121 | 195 |  | 
4 | Cc1ccc2c(c1)C(=O)N(c1c(C(C)C)cccc1C(C)C)C2=O [Compound 171] | 162.9 to 163.2 |  |  |  |  |  |  |  | 421 | 
5 | CC(C)c1cccc(C(C)C)c1N1C(=O)c2ccccc2C1=S [Compound 174, N-(2,6-diisopropylphenyl)thiophthalimide] |  |  |  |  |  |  |  |  | 682 | amount of TNF-α, Okadaic acid alone = 100% ([2]; compound 1 μM): 96%; amount of TNF-α, Okadaic acid alone = 100% ([2]; compound 10 μM): 15%; amount of TNF-α, Okadaic acid alone = 100% ([2]; compound 100 μM): 0%; amount of TNF-α, TPA alone = 100% ([1]; compound 1 μM): 332%; amount of TNF-α, TPA alone = 100% ([1]; compound 100 μM): 1326%; Amount of hemoglobin, value in parentheses (dose 0 = 100) ([3]; 100 mg/kg intraperitoneally everyday, 8 days after matrigel injection (Table 12)): 54; Amount of hemoglobin ([3]; 100 mg/kg intraperitoneally everyday, 8 days after matrigel injection, dose 0 = 307.3 (Table 12)): 164.8 μg/gel
6 | CC(C)c1cccc(C(C)C)c1N1C(=O)c2ccc(C(C)(C)C)cc2C1=O [Compound 173, N-(2,6-diisopropylphenyl)-5-tert-butyl phthalimide] | 234 to 234.8 |  |  |  |  |  |  |  | 251 | 
7 | CCCCCCOc1ccc2c(c1)C(=O)N(c1c(C(C)C)cccc1C(C)C)C2=O [Compound 193] | 117 to 118 |  |  |  |  |  |  |  |  | 
8 | CSc1ccccc1N1C(=O)c2ccc(C)cc2C1=O [Compound 195] | 175 to 177 |  |  |  |  |  |  |  |  | 
9 | C[C@@H](c1ccccc1)N1C(=O)c2c(F)c(F)c(F)c(F)c2C1=O [Compound 17, (S)-2-(1-phenylethyl)-4,5,6,7-tetrafluoro-1H-isoindole-1,3-dione] |  | 100 | 99 | 95 | 70 | 102 | 120 | 143 |  | Amount of hemoglobin, value in parentheses (Control = 100) ([3]; 1 mg/kg): 21; Amount of hemoglobin ([3]; 1 mg/kg, experiment (b), Control 83.3 (Table 15)): 17.3 μg/gel; Amount of hemoglobin, value in parentheses (Control = 100) ([3]; 5 mg/kg): 31; Amount of hemoglobin ([3]; 5 mg/kg, experiment (b), Control 83.3 (Table 15)): 25.7 μg/gel
